The source of these data is PMC4014123 (Acta Crystallographica Section D: Biological Crystallography, 2014).

The test deals with Cp-NanI (Clostridium perfringens, UniProt A0A0H2YQR1). Kind of test: biochemical.

A word on the IC50: it is the concentration that inhibits the measured activity by half.

Entries after “also recorded” stand apart in the source; their conditions may differ. Where two headings read alike, the source gives them in different places.

Cp-NanI, sequence (A0A0H2YQR1 243-694 limits assumed): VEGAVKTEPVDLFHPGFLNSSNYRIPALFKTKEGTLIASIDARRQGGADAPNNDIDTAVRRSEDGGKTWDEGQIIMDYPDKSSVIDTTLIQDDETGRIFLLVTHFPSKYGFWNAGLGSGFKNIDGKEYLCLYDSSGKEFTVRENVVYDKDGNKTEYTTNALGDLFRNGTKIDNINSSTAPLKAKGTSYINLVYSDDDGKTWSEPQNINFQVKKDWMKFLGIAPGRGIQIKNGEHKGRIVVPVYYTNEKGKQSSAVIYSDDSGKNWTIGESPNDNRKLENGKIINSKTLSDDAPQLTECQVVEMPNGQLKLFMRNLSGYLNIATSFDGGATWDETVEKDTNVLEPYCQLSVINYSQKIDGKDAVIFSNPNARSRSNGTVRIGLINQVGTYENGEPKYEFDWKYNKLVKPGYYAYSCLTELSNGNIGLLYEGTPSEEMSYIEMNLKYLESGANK

Take “6-[(2E)-3,7-dimethylocta-2,6-dienyl]-5,7-dihydroxy-2-(3-hydroxy-4-methoxyphenyl)-2,3-dihydrochromen-4-one [3′-O-Methyldiplacone]”: the IC50 (pH 5, read-out: IC50) came to 14.3 µM.
Regarding `COc1ccc(C2CC(=O)c3c(cc(O)c(C/C=C(\C)CCC=C(C)C)c3O)O2)cc1O` (stereo not shown) [4′-O-Methyldiplacone, 6-[(2E)-3,7-dimethylocta-2,6-dienyl]-5,7-dihydroxy-2-(3-hydroxy-4-methoxyphenyl)-2,3-dihydrochromen-4-one], the IC50 was 12.9 µM.
For the compound `CC(C)=CCC/C(C)=C/Cc1c(O)cc2c(c1O)C(=O)CC(c1ccc(O)c(O)c1)O2` (stereo not shown) [Diplacone, 2-(3,4-dihydroxyphenyl)-6-[(2E)-3,7-dimethylocta-2,6-dienyl]-5,7-dihydroxy-2,3-dihydrochromen-4-one], it took 0.11 µM to reach half-maximal inhibition (IC50), the “inhibition kinetics / mechanism” value is on record as “competitive kinetics; also recorded: time-dependent inhibitor”, the “k 5” value is 0.201 ± 0.003 min⁻¹ and the “k 6” value is 0.0017 ± 0.004 min⁻¹. For the same compound, where the note is “K i”, the Ki amounted to 0.04 µM. The same compound came in with a Ki (K i ^app) of 0.065 ± 0.008 µM.
`O=C1C[C@@H](c2ccc(O)c(O)c2)Oc2cc(O)cc(O)c21` [Eriodictyol, (2S)-2-(3,4-dihydroxyphenyl)-5,7-dihydroxy-4-chroman-one, reference compound] had an IC50 of 16.4 µM.
The same measure, in the same setting: the figure for `CC(C)=CCC/C(C)=C/Cc1c(O)cc2c(c1O)C(=O)C[C@@H](c1ccc(O)cc1)O2` [Mimulone, (2S)-6-[(2E)-3,7-dimethylocta-2,6-dienyl]-5,7-dihydroxy-2-(4-hydroxyphenyl)-2,3-dihydrochromen-4-one] is 6.1 µM.
